Values after ≈ are worked out from the molar mass of the structure shown. Bounds are passed on as bounds.

Series [1] can be described thus: Stability of solvate/hydrate forms in the absence of solvent or at low humidity. The format is physicochemical.
The nature of series [2]: Slurry in water (conversion to hydrate). The format is physicochemical.
The nature of series [3]: Solid-state physical form stability (accelerated 40° C./75% RH, high humidity, API stability studies). The series is classed as physicochemical.
Series [4] can be described thus: Dynamic vapor sorption (DVS). The format is physicochemical. The following applies: for weight gain in DVS / dynamic moisture sorption experiment: at 95% RH. Here is the method: Automated vapor sorption data were collected on a TA Instruments Q5000SA vapor sorption analyzer. NaCl and PVP were used as calibration standards. Samples were not dried prior to analysis. Adsorption and desorption data were collected at 25° C. over a range from 5 to 95% RH at 10% RH increments under a nitrogen purge. Samples were held at the corresponding RH for 1 hour prior to moving to the next RH range. Data were not corrected for the initial moisture content of the samples.

The nature of series [5]: Slurry interconversion experiments in pure isoamyl alcohol. The following applies: Form B versus Form C in pure isoamyl alcohol. The series is classed as physicochemical. As for the experimental part: Form C was derived only from isoamyl alcohol and was initially formed at 5° C. It is crystalline by XRPD (FIG. 13) and PLM. […] This weight loss was divided into two broad steps: a 5.2% weight loss was observed from ambient to 105° C. and an additional 9.8% weight loss was observed from 105-125° C. (bp of isoamyl alcohol: 130° C.). The theoretical weight loss for a mono-solvate is 16.1% and 8.7% for a hemi-solvate. The crystal structure of Form C was solved. Form C is the mono-isoamyl alcoholate. […] The solvate, Form C, was favored at temperatures of 15° C. or below.

The nature of series [6]: Isothermal TGA dehydration. The series is classed as physicochemical. As for the experimental part: Weight change as a function of temperature was determined by TGA. […] 0.1-2 milligrams of the sample were placed in a DSC pan located on the sample holder. The sample holder was heated in the TGA from 25 to 300° C. at a heating rate of 10° C. min^−1. Dry N2 gas was used for purging. Isothermal experiments were conducted by heating the sample at 10° C./min to the desired temperature and then holding the sample at that temperature for at least 200 minutes.

Series [7] is described as follows: Solubility in solvents/solvent mixtures at two temperatures (visual dissolution, HPLC for suspensions). The series is classed as physicochemical. Here is the method:
The solubility of GDC-0032 was determined in various solvents/solvent mixtures at two different temperatures: Ethanol absolute, Methanol, Isopropanol, Acetone, Ethyl Acetate, Isopropyl acetate, Tetrahydrofuran, 2-Butanone, Methanol/Water (50/50), 2,2,2-Trifluoroethanol (TFE), 2-Butanone, TFE/Ethyl acetate (50/50), TFE/Acetone (50/50), TFE/Water (50/50), Acetonitrile, Acetonitrile/water (50/50), Acetone/water (50/50), Tert-butyl methyl ether, n-Heptane, Ethanol/Ethyl acetate (50/50), Ethanol/Acetone (50/50), Methanol/water (90/10), Ethanol/Acetonitrile (50/50).
For each experiment, approximately 5-10 mg of material was weighed in 40 mL vials. […] In each vial, the solvent was added to the solid in steps of 50 μL until dissolution or until a minimum concentration of 0.2 mg/mL was reached. Dissolution was assessed visually at two temperatures, room temperature (RT) and a higher temperature (Tmax=50 or 70° C., selected such that the boiling point of the solvent was higher than Tmax). Solubility was measured by HPLC for suspensions.

A short description of series [8]: Solubility of GDC-0032 in methanol at high temperature. Conditions: approximately 15 mg in 500 mL methanol, 24 hours equilibration. The format is physicochemical. As for the experimental part: Solubility of GDC-0032 in methanol at high temperature: Solubility of GDC-0032 in methanol at 45° C. and 55° C. was measured. Two slurries were prepared with approximately 15 mg of starting material and 500 mL of methanol. The slurries were subsequently placed in two ovens, at 45° C. and 55° C. each. After 24 hours of equilibration the two slurries were visually checked. In both cases the dissolution was not complete. The solids were separated from the mother liquor and were harvested both wet and dried for XRPD and digital imaging. The mother liquor was evaporated and the solids were also analyzed by XRPD and digital imaging.

Series [9] is described as follows: pKa and log P by potentiometric titration. The series is classed as physicochemical. As for the experimental part:
GDC-0032 API is a white to off-white solid. It is crystalline as confirmed by the sharp peaks of its XRPD pattern and has a melting point of 258° C. Several physical forms of GDC-0032 free base, including an anhydrous form (Form B), several hydrates, and several solvates, have been identified to date. Form B has a melting point range of 256° C. to 258° C. Form B has been produced consistently in the API process to date. […] The reproducibility and stability of the crystalline form will be monitored during API synthesis and stability. GDC-0032 is non-hygroscopic, with less than 0.2% weight gain at 95% RH in the dynamic moisture sorption experiment.

Series [10] is described as follows: Solubility assessment as a function of pH and in different buffers and formulation vehicles. The series is classed as physicochemical. From the text: The solubility behavior of GDC-0032 API is summarized as a Function of pH and in Different Buffers and Formulation Vehicles
For the next series, the system named is PI3K. The following applies: cited from earlier work.

`C1COCCO1.Cc1nc(-c2cn3c(n2)-c2ccc(-c4cnn(C(C)(C)C(N)=O)c4)cc2OCC3)n(C(C)C)n1.Cc1nc(-c2cn3c(n2)-c2ccc(-c4cnn(C(C)(C)C(N)=O)c4)cc2OCC3)n(C(C)C)n1` [Form AA]: the “stability in the absence of the solvate solvent” value in series [1] is reported as “not stable”.
The same measure, in the same setting: the entry for `C1CCOC1.Cc1nc(-c2cn3c(n2)-c2ccc(-c4cnn(C(C)(C)C(N)=O)c4)cc2OCC3)n(C(C)C)n1` [Form AC] is “not stable”.
For the compound `CO.Cc1nc(-c2cn3c(n2)-c2ccc(-c4cnn(C(C)(C)C(N)=O)c4)cc2OCC3)n(C(C)C)n1` [Form A], the “form obtained on slurrying in the presence of water” value in [2] (50° C.) is on record as “Form D”. For the same compound, the “form obtained from water slurry experiment” value in [2] (room temperature, after drying) is “mixture of Form A and Form D”.
For the compound `Cc1nc(-c2cn3c(n2)-c2ccc(-c4cnn(C(C)(C)C(N)=O)c4)cc2OCC3)n(C(C)C)n1` [Form B], the “physical form after accelerated stability tests” value in [3] (40° C. and 75% RH) is “unchanged”. Besides, the “form change when exposed to high humidity” value in series [3] (high humidity for at least 6 months) is listed as “does not exhibit any form change”. In series [4], the “physical form after the DVS experiment” value is on record as “still Form B” and the “weight gain in DVS / dynamic moisture sorption experiment” value is “less than 0.3%”. In series [2] (water, with and without Tween 80), the “conversion on slurrying in water” value is recorded as “no conversion to the hydrate”. Also, the “temperature at which the form is preferred/favored in slurry interconversion” value in series [5] is at least 20 °C.
As for `CC(C)CCO.Cc1nc(-c2cn3c(n2)-c2ccc(-c4cnn(C(C)(C)C(N)=O)c4)cc2OCC3)n(C(C)C)n1` [Form C], the “temperature at which the form is preferred/favored in slurry interconversion” value in [5] is at most 15 °C.
Regarding `Cc1nc(-c2cn3c(n2)-c2ccc(-c4cnn(C(C)(C)C(N)=O)c4)cc2OCC3)n(C(C)C)n1.O` [Form D], the “time to complete dehydration on the TGA” value was at most 40 min in [6] (isothermal at 60° C.) and at most 15 min in [6] (isothermal at 100° C.).
On to `Cc1nc(-c2cn3c(n2)-c2ccc(-c4cnn(C(C)(C)C(N)=O)c4)cc2OCC3)n(C(C)C)n1.O` [Form X], for which the “humidity at which Form X reversibly converts to Form Y” value in series [1] (at 20° C.) is on record as 10-20 % RH.
With `CC(C)C(=O)C(C)C.Cc1nc(-c2cn3c(n2)-c2ccc(-c4cnn(C(C)(C)C(N)=O)c4)cc2OCC3)n(C(C)C)n1` [Form Z], the “stability in the absence of the solvate solvent” value in series [1] was “converts to Form B”.
For the compound `Cc1nc(-c2cn3c(n2)-c2ccc(-c4cnn(C(C)(C)C(N)=O)c4)cc2OCC3)n(C(C)C)n1` [GDC-0032, 2-(4-(2-(1-isopropyl-3-methyl-1H-1,2,4-triazol-5-yl)-5,6-dihydrobenzo[f]imidazo[1,2-d][1,4]oxazepin-9-yl)-1H-pyrazol-1-yl)-2-methylpropanamide], the “solubility in 2,2,2-trifluoroethanol (TFE)” value in series [7] was “high solubility”. For the same compound, the “solubility in various solvents/solvent mixtures” value in series [7] (23 listed solvents/mixtures, RT and Tmax 50 or 70° C.) is “soluble in all except for Ethyl Acetate, Isopropyl acetate, Tetrahydrofuran, Tert-butyl methyl ether, and n-Heptane”. Further, the dissolution in methanol entry in [8] (45° C.) and in series [8] (55° C.) was “not complete” throughout. The compound also returned a logP in series [9] of 2.5. The compound also came in with a pKa in [9] (weak base) of 3.19. The “physical form conversion in ongoing stability studies for the API” value in [3] is recorded as “no physical form conversion”. Moreover, the solubility in series [10] (FaSSIF, pH 6.8, at 37° C.) is 22 µg/mL (≈ 47.8 µM); in [10] (FeSSIF, pH 5.0, at 37° C.) it was 270 µg/mL (≈ 586 µM); in [10] (aqueous buffer, 50 mM phosphate buffer, pH 6.5, at room temperature), 0.72 µg/mL (≈ 1.56 µM); in [10] (simulated gastric fluid, 0.1N HCl, pH 1.1, at room temperature), 54 µg/mL (≈ 117 µM); in series [10] (water), 1.5 µg/mL (≈ 3.26 µM). Also, the “weight gain in DVS / dynamic moisture sorption experiment” value in series [4] is “less than 0.2%”. Moreover, in the series on PI3K, the PI3K activity entry is recorded as “potent”.

One may read the logP as a log measure of how a compound divides between an organic and an aqueous phase. A word on the pKa: it is the pH at which an ionisable group is half protonated. The solubility is the dissolved amount per volume that the medium holds. Low values mean little dissolved substance, high ones much dissolved substance.

The record behind these values is patent US9266903B2, “Polymorphs of 2-(4-(2-(1-isopropyl-3-methyl-1H-1,2,4-triazole-5-yl)-5,6-dihydrobenzo[F]imidazo [1,2-D][1,4]oxazepin-9-yl)-1H-pyrazol-1-yl)-2-methylpropanamide, methods of production, and pharmaceutical uses thereof” (Genentech, Inc., priority 2013, dated 2016).
